Test results: patent US20260027102A1, “QUINOLYLNITRONE DERIVATIVES FOR USE IN THE PREVENTION AND/OR TREATMENT OF HEARING LOSS” (CONSEJO SUPERIOR DE INVESTIGACIONES CIENTÍFICAS (CSIC), priority 2022, published 2026)

Key:
[1] = test system: HEI-OC1 mouse auditory cells; test: XTT cell viability assay in HEI-OC1 auditory cells with or without H2O2; format: cell-based
Method: QN23 nitrone was tested in cell cultures of HEI-OC1 mouse auditory cells derived from the Immortomouse™ postnatal organ of Corti following protocols published by the group (Cervantes et al., J Clin Med. 2019 Sep. 14; 8 (9): 1464). HEI-OC1 cells were cultured in DMEM medium supplemented with 10% fetal bovine serum (Gibco), without antibiotics.
Cells were treated with different doses of QN23 (10-50-100-150-200 μM) and with or without 1.2 mM H2O2. Cell viability was studied by XTT assay. Absorbance measurements at 450 and 660 nm were taken with the VERSAmax plate reader at 4 h, 6 h and 23 h after addition of XTT reagents. Viability results were calculated following the formula: Specific absorbance=[Abs450 nm (test)−Abs450 nm (blank)]−Abs660 nm (test). The wells without cells in the respective treatments were used as blanks. Data are represented as mean±SEM, considering the untreated control as 100% viability. Results are from 3 independent experiments and 7 wells/condition/experiment for QN23 nitrone without H2O2 treatment (A-C) or with treatment (D-E). Statistical significance was calculated by Student's test: *p<0.05; **p<0.01; ***p<0.001 in comparison vs. untreated control with QN23. […] After the exposure to H2O2, the cell viability was reduced about 50% due to the cell death associated to the oxidative damage caused by H2O2.
The inventors also compared the effect of QN23 with N-acetylcysteine (NAC). To that end, QN23 nitrone was dissolved in absolute EtOH≥99.5% (#107017; Merck) and tested in vitro in a dose range of 10-200 μM. Cells were treated with increasing doses of H2O2 (1-1.4 mM; Merck).
N-acetylcysteine (NAC) (0.5 mM; Sigma) was used as a reference antioxidant treatment. NAC is a prodrug of L-cysteine, itself a precursor of the biological antioxidant glutathione, among other intracellular actions (Ezerina et al., Cell Chem Biol. 2018 Apr. 19; 25 (4): 447-459.e4). Cells were treated with increasing doses of H2O2 (0.8-1.6 mM).
In both cases, survival curves were performed using the CyQUANT™ XTT cell viability assay (#X12223; Invitrogen) after 2 hours of the administration of QN23 or NAC.
Phenyl N-t-butylnitrone≥98% C6H5CH═N(O)C(CH3)3, PBN) (Sigma-Aldrich, catalogue number B7263) was dissolved as indicated by the manufacturer in Dimethyl sulfoxide (DMSO). DMSO was used as a solvent and had no detectable effects at the dose used (up to 0.1%). A solution 50 uM was prepared to determine the protective effect.
Cell culture, treatments with PBN and XTT assays were performed as already reported for QN23 in sections above.

C57BL/6JCrl mice = test: Noise-induced hearing loss in mice, auditory brainstem response (ABR) thresholds; format: in vivo; conditions: 24 h after noise exposure (105 dB, 30 min); QN23 2 mg/kg every 12 h intraperitoneally for 3 days, started 1 h before noise; vs vehicle; click and pure tones 4-32 kHz
Method: The experiments were carried out in C57BL/6JCrl mice, male or female, aged 1.5 months at the beginning of the study.
Noise exposure was performed inside a reverberation chamber. The animals were exposed to 105 dB SL for 30 minutes (Sanz L, Murillo-Cuesta S, Cobo P, Cediel-Algovia R, Contreras J, Rivera T, Varela-Nieto I, Avendaño C. Swept-sine noise-induced damage as a hearing loss model for preclinical assays. Front Aging Neurosci. 2015 Feb. 16; 7:7).
Auditory function was assessed by recording auditory brainstem evoked potentials (ABR) at baseline and after noise exposure (1 day, 14 days and 28 days after exposure), according to protocol described in (Murillo-Cuesta S, Contreras J, Zurita E, Cediel R, Cantero M, Varela-Nieto I, Montoliu L. Melanin precursors prevent premature age-related and noise-induced hearing loss in albino mice. Pigment Cell Melanoma Res. 2010 February; 23 (1): 72-83. doi: 10.1111/j.1755-148X.2009.00646.x. Epub 2009 Oct. 19).
The nitrone QN23 was prepared as described in WO2020/074666. The solution for its administration was always performed at the time of use by dissolving it under vigorous stirring in a mixture of ethanol, polyethylene glycol (PEG400, Sigma) and saline (1:200:60, V/V), until a stock solution of concentration 3.6 mg/ml was obtained. […]

SMILES: CC(=O)N[C@@H](CS)C(=O)O [NAC, N-acetylcysteine, reference compound]
- Protective effect on cell viability at increasing doses of H2O2 ([1]; 0.5 mM NAC, H2O2 0.8-1.6 mM, 2 h): effectively protected from H2O2-induced oxidative damage and cell death at the highest doses tested

SMILES: CC(C)(C)[N+]([O-])=Cc1ccccc1 [PBN, Phenyl N-t-butylnitrone, reference compound]
- Protective effect on cell viability at increasing doses of H2O2 ([1]; 50 μM PBN, without or with increasing doses of H2O2, 2 h, XTT read at 4 and 6 h, 1 experiment): no protection was observed when H2O2 doses were higher than 0.5 mM

SMILES: COc1ccc2nc(Cl)c(/C=[N+](\[O-])C(C)(C)C)cc2c1 [QN23, (Z)—N-tert-butyl-1-(2-chloro-6-methoxyquinolin-3-yl)methanimine oxide]
- Auditory Brainstem Response thresholds after noise exposure (C57BL/6JCrl mice): significantly lower thresholds than those receiving vehicle
- Cell viability at low H2O2 concentration (early stages of cell deterioration) ([1]; 50 μM QN23, 0.8 mM H2O2, 2 h): enhancement of cell viability even at concentrations as low as 0.8 mM H2O2
- Protective effect on cell viability at increasing doses of H2O2 ([1]; 50 μM QN23, H2O2 0.8-1.6 mM, 2 h): cell viability superior at all H2O2 concentrations tested
- Toxicity to cells (cell viability without H2O2) ([1]; QN23 10-200 μM for 2 h, without H2O2, XTT read at 4, 6 and 23 h): not toxic to the cells
- Cell viability after exposure to H2O2 ([1]; QN23 10-50-100-150-200 μM with 1.2 mM H2O2 for 2 h, vs non-treated control group): significantly increased cell viability at all the doses tested
